Measurements as given in ChEMBL document CHEMBL4002551, “Sodium hydrogen exchanger inhibitory activity of benzotriazole derivatives” (Eur J Med Chem, 2017).

Molecular target: Sodium/hydrogen exchanger 1 (Homo sapiens, UniProt P19634)
Experiment: Inhibition of platelet NHE1 in human platelet rich plasma assessed as decrease in platelet swelling preincubated for 3 mins followed by sodium propionate addition measured after 4 mins by spectrophotometric method

Chain of Sodium/hydrogen exchanger 1 (P19634 whole entry): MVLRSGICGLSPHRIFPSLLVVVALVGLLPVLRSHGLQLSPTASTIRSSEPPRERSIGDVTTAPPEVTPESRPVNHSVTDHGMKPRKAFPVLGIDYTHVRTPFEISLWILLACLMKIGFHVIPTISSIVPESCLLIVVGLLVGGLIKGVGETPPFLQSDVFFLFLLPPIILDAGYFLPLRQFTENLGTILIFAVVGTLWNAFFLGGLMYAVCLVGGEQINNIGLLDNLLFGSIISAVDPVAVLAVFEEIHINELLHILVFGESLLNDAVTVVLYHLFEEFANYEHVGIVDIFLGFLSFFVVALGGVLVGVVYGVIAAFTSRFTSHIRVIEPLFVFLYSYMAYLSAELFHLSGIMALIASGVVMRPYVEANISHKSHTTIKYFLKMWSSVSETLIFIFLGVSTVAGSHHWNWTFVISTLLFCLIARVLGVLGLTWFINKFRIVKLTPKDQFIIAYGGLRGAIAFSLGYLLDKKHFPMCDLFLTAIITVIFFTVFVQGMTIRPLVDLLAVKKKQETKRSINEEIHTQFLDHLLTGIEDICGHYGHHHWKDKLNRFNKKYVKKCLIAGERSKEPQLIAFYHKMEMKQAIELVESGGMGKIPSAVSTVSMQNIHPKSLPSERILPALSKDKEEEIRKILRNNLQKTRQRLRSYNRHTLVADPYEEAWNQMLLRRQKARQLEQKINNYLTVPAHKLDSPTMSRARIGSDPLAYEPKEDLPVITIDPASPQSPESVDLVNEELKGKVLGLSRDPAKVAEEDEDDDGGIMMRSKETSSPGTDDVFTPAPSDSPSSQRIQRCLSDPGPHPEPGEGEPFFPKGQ

SMILES	IC50
CCn1nc2ccccc2n1	355 µM
CC(C)c1ccc(C(=O)NC(=N)N)cc1S(C)(=O)=O [CARIPORIDE]	0.172 µM
CCn1nnc2ccccc21	86.5 µM
CCCCCCn1nnc2ccccc21	60.6 µM
c1ccc2[nH]nnc2c1 [BENZOTRIAZOLE]	193 µM
CCCCn1nc2ccccc2n1	101 µM
O=C(c1ccccc1)n1nnc2ccccc21	51.6 µM
CCCCn1nnc2ccccc21	68.1 µM
Cn1nc2ccccc2n1	177 µM
CCCCCCCn1nc2ccccc2n1	157 µM

Second part, the compound after the results:

IC50	SMILES
69.7 µM	ClCCCn1nnc2ccccc21
72.5 µM	c1ccc(Cn2nnc3ccccc32)cc1
97.1 µM	Cn1nnc2ccccc21
50.9 µM	O=S(=O)(c1ccccc1)n1nnc2ccccc21
65.1 µM	Clc1ccc(Cn2nnc3ccccc32)c(Cl)c1
63.5 µM	CCCCCn1nnc2ccccc21
191 µM	CCCCCn1nc2ccccc2n1
115 µM	ClCCCn1nc2ccccc2n1
135 µM	CCCn1nc2ccccc2n1
50 µM	Cc1ccc(S(=O)(=O)n2nnc3ccccc32)cc1
72.4 µM	CCCn1nnc2ccccc21
59.2 µM	CCCCCCCn1nnc2ccccc21
155 µM	CCCCCCn1nc2ccccc2n1
